Type in all cases: cell-based
One test concerns the target human TLR7 (Homo sapiens (Human), UniProt Q9NYK1). Description: TLR7 inhibition reporter assay (HEK-Blue, SEAP). To be noted: HEK-Blue cells overexpressing human TLR7, gardiquimod 7.5 μM stimulation. Put shortly:
(§1)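 Reporter cells, NF-κB/AP-1-driven SEAP; cmpd 0.05 nM–50 μM final, 30 min RT pre-treat; stim gardiquimod 7.5 μM (TLR7), R848 15.9 μM (TLR8), ODN2006 5 nM (TLR9); 22 h 37 °C; % inhibition of SEAP signal.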
On the technique in general: Reporter assays use an easily measured gene product as a stand-in for the process of interest.

For another test, the target named is human TLR8 (Homo sapiens (Human), UniProt Q9NR97). Description: TLR8 inhibition reporter assay (HEK-Blue, SEAP). To be noted: HEK-Blue cells overexpressing human TLR8, R848 15.9 μM stimulation. An outline of the steps:
as §1

For the next test, the target named is human TLR9 (Homo sapiens (Human), UniProt Q9NR96). Kind of test: TLR9 inhibition reporter assay (HEK-Blue, SEAP). To be noted: HEK-Blue cells overexpressing human TLR9, ODN2006 5 nM stimulation. An outline of the steps: as §1

SMILES strings stand for the structures. A value given as a limit tells only on which side of the number the result lay.

As a reminder, the IC50 is the concentration that inhibits the measured activity by half. A high value points to a need for much substance.

Chain of human TLR7 (Q9NYK1 27-1049): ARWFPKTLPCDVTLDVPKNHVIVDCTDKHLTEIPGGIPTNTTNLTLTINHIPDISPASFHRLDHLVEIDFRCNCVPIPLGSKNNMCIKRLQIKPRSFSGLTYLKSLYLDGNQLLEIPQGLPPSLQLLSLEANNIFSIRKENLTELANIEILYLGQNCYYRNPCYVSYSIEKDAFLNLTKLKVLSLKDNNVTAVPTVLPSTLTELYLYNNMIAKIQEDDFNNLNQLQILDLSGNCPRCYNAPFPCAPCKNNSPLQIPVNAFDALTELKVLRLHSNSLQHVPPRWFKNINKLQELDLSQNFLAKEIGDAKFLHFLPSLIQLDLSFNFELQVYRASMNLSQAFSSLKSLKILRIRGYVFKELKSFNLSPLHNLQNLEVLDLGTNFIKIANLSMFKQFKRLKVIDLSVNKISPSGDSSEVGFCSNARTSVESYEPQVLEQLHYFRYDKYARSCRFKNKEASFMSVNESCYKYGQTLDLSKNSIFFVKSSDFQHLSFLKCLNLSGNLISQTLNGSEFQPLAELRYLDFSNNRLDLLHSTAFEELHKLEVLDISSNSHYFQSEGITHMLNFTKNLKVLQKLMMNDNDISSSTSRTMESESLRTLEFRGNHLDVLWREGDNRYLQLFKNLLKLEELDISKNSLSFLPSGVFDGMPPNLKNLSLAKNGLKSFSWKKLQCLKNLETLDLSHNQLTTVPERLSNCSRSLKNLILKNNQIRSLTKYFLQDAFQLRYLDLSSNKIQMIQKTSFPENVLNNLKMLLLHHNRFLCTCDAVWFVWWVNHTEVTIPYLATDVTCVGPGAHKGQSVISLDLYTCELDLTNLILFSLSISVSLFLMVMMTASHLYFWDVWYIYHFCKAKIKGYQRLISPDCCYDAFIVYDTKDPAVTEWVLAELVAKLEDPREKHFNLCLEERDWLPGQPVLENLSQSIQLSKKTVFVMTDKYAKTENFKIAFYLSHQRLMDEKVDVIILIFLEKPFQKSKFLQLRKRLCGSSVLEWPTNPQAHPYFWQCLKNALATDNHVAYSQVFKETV
Chain of human TLR8 (Q9NR97 27-1041): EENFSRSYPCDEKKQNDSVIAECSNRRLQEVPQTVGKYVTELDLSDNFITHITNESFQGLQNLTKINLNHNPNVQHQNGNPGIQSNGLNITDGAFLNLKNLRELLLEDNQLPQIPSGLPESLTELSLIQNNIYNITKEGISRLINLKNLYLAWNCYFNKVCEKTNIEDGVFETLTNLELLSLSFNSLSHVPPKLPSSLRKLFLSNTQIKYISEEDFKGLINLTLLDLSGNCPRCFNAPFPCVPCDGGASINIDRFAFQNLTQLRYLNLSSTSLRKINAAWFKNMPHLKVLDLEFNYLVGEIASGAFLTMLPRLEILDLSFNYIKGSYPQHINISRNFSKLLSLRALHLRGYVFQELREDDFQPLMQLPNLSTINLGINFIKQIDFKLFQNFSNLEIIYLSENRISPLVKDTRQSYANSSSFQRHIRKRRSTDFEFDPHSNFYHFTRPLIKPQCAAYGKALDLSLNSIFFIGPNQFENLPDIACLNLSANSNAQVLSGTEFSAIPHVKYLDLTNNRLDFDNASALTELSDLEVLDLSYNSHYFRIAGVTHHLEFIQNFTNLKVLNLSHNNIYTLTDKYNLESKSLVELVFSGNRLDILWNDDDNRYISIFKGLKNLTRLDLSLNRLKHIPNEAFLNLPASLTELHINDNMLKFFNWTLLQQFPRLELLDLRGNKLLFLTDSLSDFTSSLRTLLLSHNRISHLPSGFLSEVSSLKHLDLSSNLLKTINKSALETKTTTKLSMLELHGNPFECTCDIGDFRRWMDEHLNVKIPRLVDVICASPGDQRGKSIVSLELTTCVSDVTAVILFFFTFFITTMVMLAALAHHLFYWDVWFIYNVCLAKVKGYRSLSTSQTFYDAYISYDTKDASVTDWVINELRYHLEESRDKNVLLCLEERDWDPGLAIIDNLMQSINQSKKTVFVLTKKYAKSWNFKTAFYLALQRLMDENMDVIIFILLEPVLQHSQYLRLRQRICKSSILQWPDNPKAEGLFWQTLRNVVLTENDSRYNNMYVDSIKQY
Chain of human TLR9 (Q9NR96 26-1032): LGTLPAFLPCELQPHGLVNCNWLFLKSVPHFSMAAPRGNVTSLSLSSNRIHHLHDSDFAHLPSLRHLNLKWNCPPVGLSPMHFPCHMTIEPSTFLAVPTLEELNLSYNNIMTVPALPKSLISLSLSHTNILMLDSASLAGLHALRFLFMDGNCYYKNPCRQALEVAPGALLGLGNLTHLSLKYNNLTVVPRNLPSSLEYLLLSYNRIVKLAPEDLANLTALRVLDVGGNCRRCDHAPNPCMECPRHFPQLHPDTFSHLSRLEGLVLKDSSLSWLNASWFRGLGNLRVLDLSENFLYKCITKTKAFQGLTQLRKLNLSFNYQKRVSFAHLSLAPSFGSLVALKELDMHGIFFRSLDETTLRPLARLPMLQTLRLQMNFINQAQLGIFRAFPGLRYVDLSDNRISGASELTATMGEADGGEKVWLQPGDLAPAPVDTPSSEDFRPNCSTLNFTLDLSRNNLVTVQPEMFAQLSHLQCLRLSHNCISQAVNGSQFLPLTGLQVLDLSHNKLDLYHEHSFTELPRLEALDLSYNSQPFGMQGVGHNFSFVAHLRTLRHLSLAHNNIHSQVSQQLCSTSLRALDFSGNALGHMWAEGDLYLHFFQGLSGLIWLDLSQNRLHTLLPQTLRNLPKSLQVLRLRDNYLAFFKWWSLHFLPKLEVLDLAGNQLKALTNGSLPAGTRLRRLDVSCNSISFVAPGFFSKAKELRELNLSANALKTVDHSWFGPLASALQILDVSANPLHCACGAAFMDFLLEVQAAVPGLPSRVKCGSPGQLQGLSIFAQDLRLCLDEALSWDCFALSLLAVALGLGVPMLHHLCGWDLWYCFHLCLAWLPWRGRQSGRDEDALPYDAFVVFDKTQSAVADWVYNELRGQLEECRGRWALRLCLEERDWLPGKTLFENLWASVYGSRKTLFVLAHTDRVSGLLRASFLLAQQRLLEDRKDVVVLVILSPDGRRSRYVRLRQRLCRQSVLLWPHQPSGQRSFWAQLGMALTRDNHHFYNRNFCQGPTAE

Regarding `CC(C)c1c(-c2ccnc3[nH]ncc23)[nH]c2ccc(-c3nnc(CC4CCCNC4)o3)cc12` (stereo not drawn) [Example 182, 2-(3-isopropyl-2-(1H-pyrazolo[3,4-b]pyridin-4-yl)-1H-indol-5-yl)-5-(piperidin-3-ylmethyl)-1,3,4-oxadiazole], the values for the concentration for half-maximal inhibition (IC50) against human TLR7, against human TLR8 and on human TLR9 were 332 nM, 44 nM and 595 nM, respectively.

Take `CC(C)c1c(-c2ccnc3n[nH]cc23)[nH]c2ccc(-c3nc(C(=O)NC4CCN(C(C)C)CC4)co3)cc12` [Example 183, 2-(3-isopropyl-2-(2H-pyrazolo[3,4-b]pyridin-4-yl)-1H-indol-5-yl)-N-(1-isopropylpiperidin-4-yl)oxazole-4-carboxamide]: the IC50 on human TLR7 is 137 nM; against human TLR8, 5.8 nM; at human TLR9 it was 427 nM.

For `Cc1cc(-c2[nH]c3ccc(-c4nnc(C5CCCNC5)[nH]4)cc3c2C(C)C)ccn1` (stereo not drawn) [Example 184, 3-isopropyl-2-(2-methylpyridin-4-yl)-5-(5-(piperidin-3-yl)-4H-1,2,4-triazol-3-yl)-1H-indole], the IC50 against human TLR7 was determined as 71 nM; against human TLR8, 77 nM; against human TLR9, 7480 nM.

Consider `Cc1cc(-c2[nH]c3ccc(-c4nnc(C5CCN(CC(=O)N(C)C)CC5)[nH]4)cc3c2C(C)C)ccn1` [Example 185, 2-(4-(5-(3-isopropyl-2-(2-methylpyridin-4-yl)-1H-indol-5-yl)-4H-1,2,4-triazol-3-yl)piperidin-1-yl)-N,N-dimethylacetamide], for which the values for the half-maximal inhibitory concentration (IC50) at human TLR7, at human TLR8 and at human TLR9 were 84 nM, 3.3 nM and 7590 nM, respectively.

As for `Cc1cc(-c2[nH]c3ccc(-c4nnc(C5CCN(C(=O)CN(C)C)CC5)[nH]4)cc3c2C(C)C)ccn1` [Example 186, 2-(dimethylamino)-1-(4-(5-(3-isopropyl-2-(2-methylpyridin-4-yl)-1H-indol-5-yl)-4H-1,2,4-triazol-3-yl)piperidin-1-yl)ethan-1-one], the concentration for half-maximal inhibition (IC50) against human TLR7 amounted to 28 nM; at human TLR8, 16 nM; against human TLR9 it was 1500 nM.

Regarding `Cc1cc(-c2[nH]c3ccc(-c4nnc(C5CCN(C(C)C)CC5)[nH]4)cc3c2C(C)C)ccn1` [Example 187, 3-isopropyl-5-(5-(1-isopropylpiperidin-4-yl)-4H-1,2,4-triazol-3-yl)-2-(2-methylpyridin-4-yl)-1H-indole], the half-maximal inhibitory concentration (IC50) came out at 70 nM on human TLR7, 6.7 nM on human TLR8 and 4100 nM on human TLR9.

`Cc1cc(-c2[nH]c3ccc(-c4nnc(C5CCCN(C(C)C)C5)[nH]4)cc3c2C(C)C)ccn1` (stereo not drawn) [Example 188, 3-isopropyl-5-(5-(1-isopropylpiperidin-3-yl)-4H-1,2,4-triazol-3-yl)-2-(2-methylpyridin-4-yl)-1H-indole]: the IC50 against human TLR7 stood at 28 nM; on human TLR8 it was 3 nM; on human TLR9, 328 nM.

For `Cc1cc(-c2[nH]c3ccc(-c4nc(C5CCNCC5)c[nH]4)cc3c2C(C)C)ccn1` [Example 189, 3-isopropyl-2-(2-methylpyridin-4-yl)-5-(4-(piperidin-4-yl)-1H-imidazol-2-yl)-1H-indole], the IC50 is 175 nM at human TLR7, 43 nM at human TLR8 and 921 nM on human TLR9.

Regarding `Cc1cc(-c2[nH]c3ccc(-c4nnc(NC(=O)CN(C)C)o4)cc3c2C(C)C)ccn1` [Example 190, 2-(dimethylamino)-N-(5-(3-isopropyl-2-(2-methylpyridin-4-yl)-1H-indol-5-yl)-1,3,4-oxadiazol-2-yl)acetamide], the IC50 on human TLR7 was 258 nM; against human TLR8 it was 9.1 nM; on human TLR9, 48500 nM.

Consider `Cc1cc(-c2[nH]c3ccc(-c4nc(C(=O)NC5CCN(C(C)C)CC5)c(C)o4)cc3c2C(C)C)ccn1` [Example 191, 2-(3-isopropyl-2-(2-methylpyridin-4-yl)-1H-indol-5-yl)-N-(1-isopropylpiperidin-4-yl)-5-methyloxazole-4-carboxamide], for which the values for the half-maximal inhibitory concentration (IC50) against human TLR7, against human TLR8 and on human TLR9 were 113 nM, 13 nM and 3410 nM, respectively.

With `Cc1cc(-c2[nH]c3ccc(-c4nc(C)cs4)cc3c2C(C)C)ccn1` [Example 192, 2-(3-isopropyl-2-(2-methylpyridin-4-yl)-1H-indol-5-yl)-4-methylthiazole], the IC50 turned out to be 1000 nM against human TLR7, 213 nM on human TLR8 and 2880 nM against human TLR9.

As for `Cc1cc(-c2[nH]c3ccc(-c4cnc(N)nc4)cc3c2C(C)C)ccn1` [Example 193, 5-(3-isopropyl-2-(2-methylpyridin-4-yl)-1H-indol-5-yl)pyrimidin-2-amine], the concentration for half-maximal inhibition (IC50) on human TLR7 is 264 nM; against human TLR8 it was 71 nM; against human TLR9, more than 50000 nM.

Consider `Cc1cc(-c2[nH]c3ccc(-c4nc(C(=O)NCC5CCNC5)c(C)o4)cc3c2C(C)C)ccn1` (stereo not drawn) [Example 194, 2-(3-isopropyl-2-(2-methylpyridin-4-yl)-1H-indol-5-yl)-5-methyl-N-(pyrrolidin-3-ylmethyl)oxazole-4-carboxamide], for which the half-maximal inhibitory concentration (IC50) was found to be 112 nM at human TLR7, 86 nM against human TLR8 and 11700 nM at human TLR9.

On to `CC(C)c1c(-c2ccnc3[nH]ncc23)[nH]c2ccc(-c3nnc(C(=O)NCCN(C)C)s3)cc12` [Example 195, N-(2-(dimethylamino)ethyl)-5-(3-isopropyl-2-(1H-pyrazolo[3,4-b]pyridin-4-yl)-1H-indol-5-yl)-1,3,4-thiadiazole-2-carboxamide], for which the half-maximal inhibitory concentration (IC50) stood at 18 nM against human TLR7, 2.5 nM against human TLR8 and 668 nM at human TLR9.

As to `Cc1cc(-c2[nH]c3ccc(-c4nnc(C5CCNCC5)[nH]4)cc3c2C(C)C)ccn1` [Example 196, 3-isopropyl-2-(2-methylpyridin-4-yl)-5-(5-(piperidin-4-yl)-4H-1,2,4-triazol-3-yl)-1H-indole], the results for the IC50 at human TLR7, on human TLR8 and against human TLR9 were 277 nM, 83 nM and 6970 nM, respectively.

Consider `Cc1cc(-c2[nH]c3ccc(-c4nc(C(=O)NCC5CCNC5)co4)cc3c2C(C)C)ccn1` (stereo not drawn) [Example 197, 2-(3-isopropyl-2-(2-methylpyridin-4-yl)-1H-indol-5-yl)-N-(pyrrolidin-3-ylmethyl)oxazole-4-carboxamide], for which the IC50 came to 440 nM against human TLR7, 61 nM against human TLR8 and 13000 nM on human TLR9.

As to `Cc1cc(-c2[nH]c3ccc(-c4ccc(NC(=O)CN(C)C)nc4)cc3c2C(C)C)ccn1` [Example 198, 2-(dimethylamino)-N-(5-(3-isopropyl-2-(2-methylpyridin-4-yl)-1H-indol-5-yl)pyridin-2-yl)acetamide], the half-inhibitory concentration (IC50) at human TLR7 worked out at 26 nM; on human TLR8, 3 nM; against human TLR9, 654 nM.

As for `Cc1cc(-c2[nH]c3ccc(-c4cnc(C5CCNCC5)s4)cc3c2C(C)C)ccn1` [Example 199, 5-(3-isopropyl-2-(2-methylpyridin-4-yl)-1H-indol-5-yl)-2-(piperidin-4-yl)thiazole], the concentration for half-maximal inhibition (IC50) against human TLR7 amounted to 37 nM; at human TLR8, 4.9 nM; at human TLR9, 1100 nM.

In the case of `Cc1cc(-c2[nH]c3ccc(-c4ccnc(N)c4)cc3c2C(C)C)ccn1` [Example 200, 4-(3-isopropyl-2-(2-methylpyridin-4-yl)-1H-indol-5-yl)pyridin-2-amine], the IC50 on human TLR7 worked out at 9.6 nM; against human TLR8 it was 9.7 nM; against human TLR9 it was 727 nM.

Values taken from patent US11420958B2, “Aryl and heteroaryl substituted indole compounds” (BRISTOL-MYERS SQUIBB COMPANY, priority 2017, dated 2022).
